Measured values published in patent publication US20250145715A1, “B7-H3 TARGETING FUSION PROTEINS AND METHODS OF USE THEREOF” (GT Biopharma, Inc., priority 2021, published 2025).
Entries after “also recorded” stand apart in the source; their conditions may differ.

How the values were obtained:
[1] = tested on: HNSCC cells (Cal27, Cal33); experiment: IncuCyte 2D and 3D spheroid killing of HNSCC; assay type: cell-based, human; settings: 2D and 3D IncuCyte; E:T 5:1, 3 nM; irrespective of FANCA gene; vs B7-H3 single domain or IL-15 alone
Experimental: FIGS. 28A-28F illustrate real-time imaging assays. FIG. 28A is a graph showing Nuclight red-labeled Cal27 survival after incubation with NK cells at an E:T of 5:1 in different conditions: no treatment or 3 nM IL-15, B7-H3 SD and B7-H3 TriKE for 48 hours in an IncuCyte Zoom imager. […] FIG. 28C is a graph illustrating the size of the spheroid in FIG. 28B. FIG. 28D is a graph showing Nuclight red-labeled Cal33 survival after incubation with NK cells at an E:T of 5:1 in different conditions: no treatment or 3 nM IL-15, B7-H3 SD and B7-H3 TriKE for 48 hours in an IncuCyte Zoom imager. […] FIG. 28F is a graph illustrating the size of the spheroid in FIG. 28E.
NK cell responses against HNSCC lines in the presence of the B7-H3 TriKE were assessed through either flow cytometry based functional assays, to evaluate NK cell degranulation and cytokine secretion, or IncuCyte imaging assays, to directly assess target killing. […]
Enriched NK cells (N=4) were incubated with Nuclight red-labeled Cal27 at an E:T of 5:1 in different conditions: no treatment or 3 nM IL-15, B7-H3 SD and B7-H3 TriKE for 48 hours in an IncuCyte Zoom imager. Quantifications of percent live cells were done by normalizing hourly counts of red cells to targets alone at t=0. […] Quantifications of percent average red object area (live cells) were done by normalizing hourly counts of average red object area to targets alone at t=0. […]

T cells (CD56−CD3+) = experiment: T cell proliferation in PBMCs, CellTrace Violet dilution; assay type: cell-based, human; settings: 7 days
Experimental: FIGS. 2A-2H illustrates that cam1615B7-H3 TriKE induces potent, and specific, natural killer (NK) cell proliferation. Peripheral blood mononuclear cells (PBMCs) were CellTrace Violet labeled and incubated for seven days at 5 nM equimolar concentrations of rhIL-15 or cam1615B7-H3 TriKE. On day 7, the cells were harvested and stained for flow cytometric evaluation. […] FIG. 2B is a graph illustrating pooled data showing the overall proportion of NK cells that proliferated. FIG. 2C is a graph illustrating pooled data showing the proportion of NK cells that highly proliferated (measured as proliferation beyond three divisions). FIG. 2D is a graph illustrating pooled data showing NK cell counts in the cultures (N=9). FIG. 2E is a representative histogram showing T cell (CD56− CD3+) proliferation. FIG. 2F is a graph illustrating pooled data showing the overall proportion of T cells proliferated. FIG. 2G is a graph illustrating pooled data showing the proportion of T cells highly proliferated. FIG. 2H is a graph illustrating pooled data showing T cell counts in the cultures (N=9). * p<0.05, ** p<0.01, *** p<0.001.
The wild-type IL-15 moiety in the cam1615B7-H3 TriKE was designed to induce targeted delivery of a proliferative signal to NK cells. To test this, proliferation assays evaluating dilution of a CellTrace dye over a 7-day period were carried out on PBMCs treated with no treatment (NT), monomeric rhIL-15 (IL15), or the TriKE (cam1615B7-H3). At the end of the seven days, cells were harvested and proliferation was evaluated by gating on CD56+CD3− cells. […] Since IL-15 acts on both NK cells and T cells, specificity was evaluated next by gating on T cells (CD56-CD3+).
To measure the ability of the TriKE to specifically induce NK cell expansion via the IL-15 moiety, PBMCs from healthy donors were labeled with CellTrace Violet Proliferation Dye (Invitrogen, Carlsbad, CA, USA) according to kit specifications. After staining, cells were cultured with TriKEs at noted concentrations, or equimolar concentrations of controls, and incubated in a humidified atmosphere containing 5% CO2 at 37° C. for seven days. Cells were harvested, stained for viability with Live/Dead reagent (Invitrogen, Carlsbad, CA, USA) and surface stained for anti-CD56 PE/Cy7 (Biolegend, San Diego, CA, USA) and anti-CD3 PE-CF594 (BD Biosciences, Franklin Lakes, NJ, USA) to gate on the viable CD56+ CD3− NK cell population or the CD56-CD3+ T cell population. Data analysis was performed using FlowJo software (FlowJo LCC, version 7.6.5, Ashland, OR, USA).

Q: Which “HNSCC target cell killing by NK cells” value [1] does the source give for “B7-H3 TriKE: camelid nanobodies targeting CD16 and B7-H3 joined by IL-15 and two linkers; sequence table equates the name with cam1615B7-H3” here?
A: Its value is “more HNSCC target cell killing; also recorded: induced NK cell killing against HNSCC”.

Q: “cam1615B7-H3: second-generation TriKE: humanized camelid anti-CD16 VHH, human wild-type IL-15, anti-B7-H3 mAb 376.96 scFv; SEQ ID NO:1” was tested. Which “overall T cell proliferation” value (T cells (CD56−CD3+); 5 nM equimolar, listed as cam1615B7-H3 TriKE) did it give?
A: Its value is “Minimal T cell proliferation; also recorded: some induction of overall T cell proliferation”.

Q: What about the “T cell numbers in culture” value (T cells (CD56−CD3+); 5 nM, vs untreated) of the same substance?
A: The value was “did not differ between the untreated and TriKE-treated groups”.

Q: And the “T cells robustly proliferating (past three divisions)” value (T cells (CD56−CD3+); 5 nM, vs untreated)?
A: Its value is “significantly less proliferation than the untreated group”.
